Source: article PMC6155628 (Molecules : A Journal of Synthetic Chemistry and Natural …, 2017)
Like-named read-outs stand apart in the source and are kept apart here. Residues, ends and D or L forms follow the SMILES beside them.

Assays:
[1] = biological target: Angiotensin converting enzyme (ACE) (Homo sapiens, UniProt P12821); experiment: biochemical
[2] = system: spontaneously hypertensive rats (SHR); details: oral, dose not given, 4 h after administration, tail-cuff, n = 6
[3] = system: SHR; details: cited from earlier work
[4] = system: ACE; details: read-out: IC50 (ACE inhibition), cited from earlier work
[5] = system: Ehrlich ascites sarcoma cells; details: Ehrlich ascites sarcoma cells in mice; cited from earlier work
From the text: Adlay seed (soft-shelled Job’s tears, Coix larchryma-jobi L. var. ma-yuen Stapf) has been used in traditional Chinese medicine and has been a nourishing food for more than a thousand years. It has been used to treat warts, chapped skin, rheumatism, neuralgia, hypertension as well as being an anti-inflammatory and anticancer agent. An increasing effort had been concentrated on finding active components from adlay. […] The main ingredient of ...

[6] = from haruan myofibrillar protein hydrolysate (proteinase K and thermolysin)

Sequence of Angiotensin converting enzyme (ACE) (P12821 30-1306, species assumed): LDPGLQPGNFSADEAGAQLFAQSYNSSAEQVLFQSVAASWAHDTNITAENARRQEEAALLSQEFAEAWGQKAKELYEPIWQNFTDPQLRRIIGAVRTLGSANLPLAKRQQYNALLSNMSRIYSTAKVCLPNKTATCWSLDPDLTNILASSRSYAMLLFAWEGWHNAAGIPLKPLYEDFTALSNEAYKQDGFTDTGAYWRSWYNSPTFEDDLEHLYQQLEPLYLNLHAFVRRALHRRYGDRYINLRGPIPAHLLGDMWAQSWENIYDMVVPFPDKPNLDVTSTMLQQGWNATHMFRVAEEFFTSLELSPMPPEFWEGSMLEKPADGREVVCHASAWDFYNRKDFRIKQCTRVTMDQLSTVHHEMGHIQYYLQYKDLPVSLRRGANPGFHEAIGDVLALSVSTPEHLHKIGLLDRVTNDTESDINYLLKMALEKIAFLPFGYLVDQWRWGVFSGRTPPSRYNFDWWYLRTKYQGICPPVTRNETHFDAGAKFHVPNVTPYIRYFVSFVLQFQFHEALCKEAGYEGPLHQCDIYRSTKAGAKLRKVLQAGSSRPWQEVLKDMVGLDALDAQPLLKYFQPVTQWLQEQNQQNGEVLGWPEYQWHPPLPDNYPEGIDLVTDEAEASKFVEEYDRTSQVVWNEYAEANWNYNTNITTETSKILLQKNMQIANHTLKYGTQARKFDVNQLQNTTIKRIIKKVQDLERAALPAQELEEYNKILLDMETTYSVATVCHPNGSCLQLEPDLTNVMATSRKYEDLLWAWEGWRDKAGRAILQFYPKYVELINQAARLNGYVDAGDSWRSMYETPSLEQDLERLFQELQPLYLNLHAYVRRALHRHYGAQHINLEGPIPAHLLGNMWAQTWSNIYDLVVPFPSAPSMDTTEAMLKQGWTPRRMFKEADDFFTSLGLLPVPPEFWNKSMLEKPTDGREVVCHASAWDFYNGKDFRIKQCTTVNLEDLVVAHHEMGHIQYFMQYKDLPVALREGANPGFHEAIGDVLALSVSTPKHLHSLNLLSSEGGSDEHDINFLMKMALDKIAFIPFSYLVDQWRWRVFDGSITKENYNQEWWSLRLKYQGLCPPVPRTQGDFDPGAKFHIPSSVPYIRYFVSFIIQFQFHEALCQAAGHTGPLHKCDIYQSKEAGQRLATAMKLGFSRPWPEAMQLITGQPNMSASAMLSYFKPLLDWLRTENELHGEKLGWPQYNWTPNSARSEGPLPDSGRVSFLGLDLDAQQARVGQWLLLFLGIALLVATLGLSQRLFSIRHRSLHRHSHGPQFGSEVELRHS

C[C@H](NC(=O)CN)C(=O)N[C@@H](C)C(=O)NCC(=O)NCC(=O)N[C@@H](C)C(=O)N[C@@H](Cc1ccccc1)C(=O)O [GAAGGAF] (H-GAAGGAF-OH)
IC50 [1]: 14.2 µM

C[C@H](CS)C(=O)N1CCC[C@H]1C(=O)O [captopril]
Maximal decrease of SBP, positive control [2]: approximately 28.17 mmHg

AAATP
Decrease of SBP ([3]; SHRs, after 8 h administration, from Spanish dry-cured ham): around 25.62 mmHg

AWLHPGAPKVF
Antihypertensive duration ([3]; single oral, 10 mg/kg): 8 h | Reduction of SBP ([3]; single oral, 10 mg/kg, from P. esculenta protein hydrolysate): around 30 mmHg

Ala-Tyr
IC50 ([4]; from corn gluten meal): 14200 nM

NGTWFEPP
IC50 [4, 6]: 630 nM

VPAAPPK
IC50 [4, 6]: 450 nM

coixenolide [coixenolide (I)]
Growth-inhibiting activity [5]: growth-inhibiting activity
